Laboratory results published in PubChem BioAssay AID2060600 (Molecular Pharmacology Branch, DTP, NCI, 2025).
Where “and” joins values, the source holds several entries; their conditions need not be identical. Equal entries are not always repeated.

Tested on: 996289-038-R-J1-PDC complex spheroid viability
Test: Anticancer human tumor 996289-038-R-J1-PDC patient-derived colon adenocarcinoma cell line growth inhibition [CLK]
Conditions: for viability, T/C: stronger effect = lower value; for IC50: curve of compound
Excerpt: A high-throughput screen of multi-cell type tumor spheroids was designed to identify active combinations of […] and targeted small molecules. Complex spheroids include a stromal component modeled by human endothelial cells (HUVEC) and fibroblasts modeled by human mesenchymal stem cells (MSCs). The concentration ranges selected for each drug and investigational agent were based upon clinically achievable concentrations if the clinical Cmax of the agent was known.
Compounds. The drugs and investigational agents: cirtuvivint (SM08502; NSC835563), CC-671 (NSC850746), vemurafenib (NSC761431), tapotoclax (NSC804041), sotorasib (NSC818433), adagrasib (NSC831453), MRTX-1133 (NSC836407), BAY2416964 (NSC825713), copanlisib (NSC816437), inavolisib (NSC800729), abemaciclib (NSC768073), osimertinib (NSC779217), entinostat (NSC756642), eltanexor (KPT-8602, NSC794443), venetoclax (NSC766270), ceralasertib (NSC777638), bortezomib (NSC756655), olaparib (NSC753686), talazoparib (NSC767125), alisertib (NSC759677), peposertib (NSC802822), gemcitabine (NSC613327), 5-fluorouracil (NSC19893), SN-38 (NSC673596), oxaliplatin (NSC266046), paclitaxel (NSC125973), and doxorubicin (NSC123127), were obtained from the National Cancer Institute (NCI) Developmental Therapeutics Program Chemical Repository. The FDA-approved anticancer drug set is available from the Developmental Therapeutics Program at https://dtp.cancer.gov/organization/dscb/obtaining/available plates.htm. […] The stock solutions were prepared in dimethyl sulfoxide (DMSO, Sigma-Aldrich, St. Louis, MO, cat. D2650), except for the platinum complexes which were prepared in saline (Quality Biological, Gaithersburg, MD, cat. 114-055-101), at 800-fold the tested concentration and stored at -70 degrees C prior to their use. All drugs and investigational agents were tested over a range starting from a high concentration at or near the clinical Cmax and decreasing in half-log increments. If the clinical Cmax for an agent had not been determined, the highest concentration tested was 10 microM.
Cell Culture. All cells were maintained in an incubator at 37 degrees C and 5% CO2 with 95% humidity. The PDC lines were cultured according to standard operating procedures established by the NCI PDMR. Briefly, all PDCs were thawed and cultured in Matrigel-coated flasks prepared with a working solution of 1X Ham's F-12 nutrient mix, without supplementation (Invitrogen, Waltham, MA, cat. 11765054), 100 U/mL penicillin-streptomycin (Invitrogen, cat. 15140122), and 2.5% Matrigel (Corning Inc., Corning, NY, cat. 354248) for the first three passages. The 947758-054-R-J2-PDC line was cultured in 6B/Colon 1A media, which includes advanced DMEM/F-12 (Thermo Fisher Scientific, cat. 12634028), 10 mM HEPES (Thermo Fisher Scientific, cat. 15630080), 1X GlutaMAX supplement (Thermo Fisher Scientific, cat. 35050061), 0.1 mg/mL primocin (InvivoGen, cat. ant-pm-2), 10% defined fetal bovine serum, heat inactivated (HyClone Laboratories Inc., cat. SH30070.03HI), 1.25 mM N-Acetyl-L-cysteine (Sigma-Aldrich, cat. A9165), 10 mM nicotinamide (Sigma-Aldrich, cat. N0636), 1X B-27 supplement (Thermo Fisher Scientific, cat. 17504044), 1X N-2 supplement (Thermo Fisher Scientific, cat. 17502048), and 10 microM Y-27632 dihydrochloride (Tocris Bioscience, cat. 1254). The 876862-298-R-J1-PDC was cultured in 6E media, which includes all 6B/Colon 1A media components plus 50% L-WRN conditioned media (ATCC, cat. CRL-3276), 50 ng/mL recombinant human EGF recombinant protein (hEGF; Thermo Fisher Scientific, cat. PHG0311), 10 ng/mL recombinant human fibroblast growth factor 10 (hGFG-10; PeproTech, cat. 100-26), 1 ng/mL recombinant human fibroblast growth factor 2 (hFGF-2; PeproTech, cat. 100-18B), and 1 µM prostaglandin E2 (PGE2; Tocris, cat. 2296). The 227483-062-R1-J1-PDC line was cultured in Panc media, containing all 6E components except hFGF-2, with the addition of 500 nM SB-431542 (Selleckchem, cat. S1067) and 10 nM gastrin (Tocris, cat. 3006). […]
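Note: spheroids exposed to the agents for 7 days before readout.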

| SMILES | IC50 | viability, T/C (compound 0.0316 µM) | viability, T/C (compound 0.1 µM) | viability, T/C (compound 0.316 µM) | viability, T/C (compound 1 µM) | viability, T/C (compound 3.16 µM) | viability, T/C (compound 10 µM) | viability, T/C (compound 0.000949 µM) | viability, T/C (compound 0.003 µM) | viability, T/C (compound 0.00949 µM) | viability, T/C (compound 0.03 µM) | viability, T/C (compound 0.0949 µM) | viability, T/C (compound 0.3 µM) | viability, T/C (compound 0.00316 µM) | viability, T/C (compound 0.01 µM) |
| --- | --- | --- | --- | --- | --- | --- | --- | --- | --- | --- | --- | --- | --- | --- | --- |
| C=C(F)C(=O)N1CCN(c2nc(OCC3CCCN3C)nc3c2CCN(c2cccc4cccc(Cl)c24)C3)CC1CC#N (configuration not stated) | 4.83 µM and 4.71 µM | 100% and 113% | 91.7% and 107% | 100% and 101% | 108% and 101% | 78.5% and 76% | 1.09% and 1.7% | – | – | – | – | – | – | – | – |
| C=CC(=O)Nc1cc(Nc2nccc(-c3cn(C)c4ccccc34)n2)c(OC)cc1N(C)CCN(C)C | > 0.3 µM | – | – | – | – | – | – | 99.1% and 105% | 106% and 96.1% | 101% and 98.5% | 92.6% and 93.1% | 93% and 92% | 81.2% and 69.9% | – | – |
| CC(C)CC(NC(=O)C(Cc1ccccc1)NC(=O)c1cnccn1)B(O)O (configuration not stated) | 0.00484 µM and 0.0035 µM | – | – | – | – | – | – | 98.5% and 113% | 78.9% and 56.8% | 9.23% and 6.16% | 0.73% and 1.24% | 0.59% and 0.71% | 0.55% and 1.04% | – | – |
| CC1(C)CCC(CN2CCN(c3ccc(C(=O)NS(=O)(=O)c4ccc(NCC5CCOCC5)c([N+](=O)[O-])c4)c(Oc4cnc5[nH]ccc5c4)c3)CC2)=C(c2ccc(Cl)cc2)C1 | 8.2 µM and 9.04 µM | 108% and 106% | 94.2% and 83.6% | 101% and 109% | 109% and 100% | 118% and 121% | 38.2% and 44.7% | – | – | – | – | – | – | – | – |
| CCCS(=O)(=O)Nc1ccc(F)c(C(=O)c2c[nH]c3ncc(-c4ccc(Cl)cc4)cc23)c1F | > 10 µM | 95.8% and 104% | 87.2% and 87.3% | 94.7% and 101% | 103% and 110% | 94.8% and 101% | 77.8% and 67.8% | – | – | – | – | – | – | – | – |

More lines, main results first:

| IC50 | SMILES | viability, T/C (compound 0.0316 µM) | viability, T/C (compound 0.1 µM) | viability, T/C (compound 0.316 µM) | viability, T/C (compound 1 µM) | viability, T/C (compound 3.16 µM) | viability, T/C (compound 10 µM) | viability, T/C (compound 0.000949 µM) | viability, T/C (compound 0.003 µM) | viability, T/C (compound 0.00949 µM) | viability, T/C (compound 0.03 µM) | viability, T/C (compound 0.0949 µM) | viability, T/C (compound 0.3 µM) | viability, T/C (compound 0.00316 µM) | viability, T/C (compound 0.01 µM) |
| --- | --- | --- | --- | --- | --- | --- | --- | --- | --- | --- | --- | --- | --- | --- | --- |
| 1.58 µM and 1 µM | C#Cc1c(F)ccc2cc(O)cc(-c3ncc4c(N5CC6CCC(C5)N6)nc(OCC56CCCN5CC(F)C6)nc4c3F)c12 (configuration not stated) | 95.8% and 98.9% | 80.1% and 91.3% | 65.1% and 73.6% | 59.3% and 49.8% | 41.1% and 37.4% | 30.7% and 33.3% | – | – | – | – | – | – | – | – |
| > 10 µM | C=CC(=O)N1CCN(c2nc(=O)n(-c3c(C)ccnc3C(C)C)c3nc(-c4c(O)cccc4F)c(F)cc23)C(C)C1 (configuration not stated) | 97.5% and 115% | 85.3% and 98% | 109% and 101% | 112% and 114% | 124% and 117% | 103% and 116% | – | – | – | – | – | – | – | – |
| > 10 µM | CC(CO)NC(=O)c1cc(-c2ccc(Cl)cc2)nn(-c2cnn(C)c2)c1=O (configuration not stated) | 104% and 103% | 99.9% and 95.8% | 94.6% and 96.1% | 92.1% and 100% | 103% and 92.2% | 88.4% and 88.7% | – | – | – | – | – | – | – | – |
| 6.04 µM and 4.5 µM | CC(Nc1ccc2c(c1)OCCn1cc(N3C(=O)OCC3C(F)F)nc1-2)C(N)=O (configuration not stated) | 97.5% and 100% | 78.5% and 75.5% | 72.1% and 74.9% | 63.5% and 60.5% | 54.1% and 53.5% | 46.5% and 44.3% | – | – | – | – | – | – | – | – |
| > 10 µM | CC1COCCN1c1cc(C2(S(C)(=N)=O)CC2)nc(-c2ccnc3[nH]ccc23)n1 (configuration not stated) | 103% and 102% | 97.6% and 89.7% | 96.9% and 106% | 97.9% and 102% | 97.8% and 101% | 84.4% and 81.6% | – | – | – | – | – | – | – | – |
| > 1 µM | CCN1CCN(Cc2ccc(Nc3ncc(F)c(-c4cc(F)c5nc(C)n(C(C)C)c5c4)n3)nc2)CC1 | 92.3% and 99.6% | 91.2% and 96.8% | 86.5% and 94.9% | 86.9% and 95% | – | – | – | – | – | – | – | – | 93.4% and 99.5% | 98.7% and 84% |
